Like-named read-outs stand apart in the source and are kept apart here.
Tests used:
A/Hong Kong/8/68 (H3N2) = assay: organism not typed; type: cell-based, influenza A virus; details: for EC50: read-out: EC50 for influenza virus A/Hong Kong/8/68
[1] = system: pore-forming glycoprotein perforin; details: previous study, ref Lena et al., 2008; cited from earlier work
[2] = system: A/Puerto Rico/8/34 (H1N1; PR8); assay: organism not typed; type: cell-based, influenza A virus; details: for EC50: read-out: EC50 for influenza virus A/Puerto Rico/8/34
B/Lee/40 = type: cell-based, influenza B virus
[3] = system: PR8 virus NP and HA protein; type: cell-based, influenza A virus; details: 11, 33 and 100 μM, 24 h at 35 °C
in vitro = details: dog
CoxB = assay: MTT-based antiviral assay, CoxB in HeLa cells; type: cell-based, Coxsackie B virus; details: maximum concentration of 100 μM, data not shown
PR8 virus [4] = type: cell-based, influenza A virus
PR8 virus [5] = type: cell-based, influenza A virus; remark: listed apart in the source
HIV = assay: MTT-based antiviral assay, HIV in MT-4 cells; type: cell-based, human immunodeficiency virus; details: maximum concentration of 100 μM, data not shown
HSV = assay: MTT-based antiviral assay, HSV in Vero cells; type: cell-based, herpes simplex virus; details: maximum concentration of 100 μM, data not shown
FECV = assay: MTT-based antiviral assay, FECV in CrFK cells; type: cell-based, feline coronavirus; details: maximum concentration of 100 μM, data not shown
[6] = system: influenza A/H1N1, A/H3N2 and B viruses; assay: CPE reduction assay / screen, stated for the three influenza viruses together; type: cell-based; details: even at 100 μM

Row | SMILES | EC50 (A/Hong Kong/8/68 (H3N2); MDCK, 72 h) [µM] | EC50 ([2]; MDCK, 72 h) [µM] | CC50 (in vitro) [µM] | also measured
1 | Cc1cc2c(c(=S)[nH]1)C(=O)O/C2=C\c1ccsc1 [Compound 15j, (Z)-6-Methyl-1-(thiophen-3-ylmethylene)-4-thioxo-4,5-dihydrofuro[3,4-c]pyridi n-3(1H)-one] | 6.2 | 5 | > 900 | toxicity to MDCK cells (MDCK cells; at 900 μM, uninfected MDCK cells): no toxicity; S.I. (selectivity index, CC50/EC50), A/Hong Kong/8/68 (A/Hong Kong/8/68 (H3N2)): 6.2 ± 3.1 (>145.2); inhibitory effect on cell lysis induced by perforin [1]: none; S.I. (selectivity index, CC50/EC50), A/Puerto Rico/8/34 [2]: 5.0 ± 1.0 (>180.0); S.I. (selectivity index, CC50/EC50), B/Lee/40 (B/Lee/40): 5.9 ± 2.0 (>152.5); viral protein level (NP, HA) in cells [3]: Reduction of the influenza viral protein level
2 | Cc1c(/C=C2\OC(=O)c3c2cc(C)n(C)c3=S)sc2ccccc12 [Compound 15i, (Z)-5,6-Dimethyl-1-((3-methylbenzo[b]thiophen-2-yl)methylene)-4-thioxo-4,5-dihydrofuro[3,4-c]pyridin-3(1H)-one] | > 100 | > 100 | > 900 | –
3 | Cc1cc2c(c(=S)[nH]1)C(=O)O/C2=C\c1cc2ccccc2s1 [Compound 15g, (Z)-1-(Benzo[b]thiophen-2-ylmethylene)-6-methyl-4-thioxo-4,5-dihydrofuro[3,4-c]pyridin-3(1H)-one] | 10.5 | 16.1 | > 900 | antiviral activity against CoxB (CoxB): no antiviral activity was detected; plaque titer (infectious viral titers) (PR8 virus [4]): significantly inhibited; S.I. (selectivity index, CC50/EC50), A/Hong Kong/8/68 (A/Hong Kong/8/68 (H3N2)): 10.5 ± 5.0 (>85.7); vRNA levels in culture supernatants (PR8 virus [5]): significantly inhibited; inhibitory effect on cell lysis induced by perforin [1]: active; antiviral activity against HIV (HIV): no antiviral activity was detected; antiviral activity against HSV (HSV): no antiviral activity was detected; S.I. (selectivity index, CC50/EC50), A/Puerto Rico/8/34 [2]: 16.1 ± 6.0 (>55.9); S.I. (selectivity index, CC50/EC50), B/Lee/40 (B/Lee/40): 18.4 ± 12.8 (>48.9); viral protein level (NP, HA) in cells [3]: Reduction of the influenza viral protein level; antiviral activity against FECV (FECV): no antiviral activity was detected
4 | O=C1O/C(=C\c2cccs2)c2cc(-c3ccccc3)[nH]c(=S)c21 [Compound 15r, (Z)-6-Phenyl-1-(thiophen-2-ylmethylene)-4-thioxo-4,5-dihydrofuro[3,4-c]pyridin-3(1H)-one] | 15.1 ± 3.8 | 28.9 ± 12.6 | > 900 | –
5 | NC(=O)c1ncn([C@@H]2O[C@H](CO)[C@@H](O)[C@H]2O)n1 [Ribavirin, ribavirin, reference compound] | 20.2 ± 2.4 | 18.8 ± 4.3 | – | –
6 | O=C1O/C(=C\c2ccsc2)c2cc(-c3ccccc3)[nH]c(=S)c21 [Compound 15l, (Z)-6-Penyl-1-(thiophen-3-ylmethylene)-4-thioxo-4,5-dihydrofuro[3,4-c]pyridin-3(1H)-one] | – | – | – | CC50 (MDCK cells; read-out: CC50 for MDCK cells, mock-infected MDCK cells, day 3, MTT): > 900 µM; EC50 (A/Hong Kong/8/68 (H3N2)): 27.1 ± 5.8 µM; EC50 [2]: > 100 µM; EC50 (B/Lee/40; read-out: EC50 for influenza virus B/Lee/40): > 100 µM
7 | Cc1cc2c(c(=S)n1C)C(=O)O/C2=C\c1cc2cc(F)ccc2[nH]1 [Compound 15c, (Z)-1-((5-Fluoro-1H-indol-2-yl)methylene)-5,6-dimethyl-4-thioxo-4,5-dihydrofuro[3,4-c]pyridin-3(1H)-one] | > 100 | > 100 | > 900 | –
8 | Cc1cc2c(c(=S)[nH]1)C(=O)O/C2=C\c1c[nH]cn1 [Compound 15o, (Z)-1-((1H-imidazol-4-yl)methylene)-6-methyl-4-thioxo-4,5-dihydrofuro[3,4-c]pyridin-3(1H)-one] | > 100 | > 100 | > 900 | anti-influenza activity [6]: no anti-influenza activity
9 | O=C1O/C(=C\c2c[nH]c3ccc(F)cc23)c2cc(-c3ccccc3)[nH]c(=S)c21 [Compound 15d, (Z)-1-((5-Fluoro-1H-indol-3-yl)methylene)-6-phenyl-4-thioxo-4,5-dihydrofuro[3,4-c]pyridin-3(1H)-one] | 32.5 ± 13.3 | 63.8 ± 25.2 | > 900 | –
10 | Cc1cc2c(c(=O)[nH]1)C(=O)O/C2=C\c1c[nH]c2ccc(F)cc12 [Compound 15b, (Z)-1-((5-Fluoro-1H-indol-3-yl)methylene)-6-methylfuro[3,4-c]pyridine-3,4(1H,5 H)-dione] | 26.8 ± 16.2 | 22.5 ± 10.8 | > 900 | –
11 | Cc1cc2c(c(=O)[nH]1)C(=O)O/C2=C\c1ccsc1 [Compound 15k, (Z)-6-Methyl-1-(thiophen-3-ylmethylene)furo[3,4-c]pyridine-3,4(1H,5H)-dione] | > 19.8 | > 19.8 | 19.8 ± 8.2 | –
12 | Cc1cc2c(c(=O)[nH]1)C(=O)O/C2=C\c1ccoc1 [Compound 15n, (Z)-1-(Furan-3-ylmethylene)-6-methylfuro[3,4-c]pyridine-3,4(1H,5H)-dione] | > 61.9 | > 61.9 | 61.9 ± 10.7 | –

Source: article PMC7113773 (Antiviral Research, 2014)
